Test results: publication PMC3958311 (EMBO Molecular Medicine, 2014)
Values after ≈ are worked out from the molar mass of the structure shown.

Experiments:
[1] = in vitro; conditions: mouse, microsomes
[2] = in vitro; conditions: human, microsomes
[3] = test system: M. tuberculosis H37Rv; experiment: Drug susceptibility testing on solid Löwenstein-Jensen medium; assay type: cell-based; conditions: Mycobacterium tuberculosis; H37Rv, Sensitive; solid Löwenstein-Jensen medium, 21-28 days; read-out: MIC
[4] = test system: M. tuberculosis clinical isolate 4328; experiment: as above; assay type: cell-based; conditions: Mycobacterium tuberculosis; […]; solid Löwenstein-Jensen medium; read-out: MIC
[5] = test system: M. tuberculosis clinical isolate 6341; experiment: as above; assay type: cell-based; conditions: Mycobacterium tuberculosis; […]; solid Löwenstein-Jensen medium; read-out: MIC
[6] = test system: M. tuberculosis clinical isolate 6374; experiment: as above; assay type: cell-based; conditions: Mycobacterium tuberculosis; […]; solid Löwenstein-Jensen medium; read-out: MIC
[7] = test system: M. tuberculosis clinical isolate 5055; experiment: as above; assay type: cell-based; conditions: Mycobacterium tuberculosis; […]; solid Löwenstein-Jensen medium; read-out: MIC
[8] = test system: M. tuberculosis clinical isolate 5253; experiment: as above; assay type: cell-based; conditions: Mycobacterium tuberculosis; […]; solid Löwenstein-Jensen medium; read-out: MIC
[9] = test system: M. tuberculosis clinical isolate 6412; experiment: as above; assay type: cell-based; conditions: Mycobacterium tuberculosis; […]; solid Löwenstein-Jensen medium; read-out: MIC
[10] = test system: M. tuberculosis clinical isolate 6448; experiment: as above; assay type: cell-based; conditions: Mycobacterium tuberculosis; […]; solid Löwenstein-Jensen medium; read-out: MIC
[11] = test system: M. tuberculosis clinical isolate 6418; experiment: as above; assay type: cell-based; conditions: Mycobacterium tuberculosis; […]; solid Löwenstein-Jensen medium; read-out: MIC
[12] = test system: M. tuberculosis clinical isolate 7384; experiment: as above; assay type: cell-based; conditions: Mycobacterium tuberculosis; […]; solid Löwenstein-Jensen medium; read-out: MIC
[13] = test system: M. tuberculosis H37Rv; experiment: MIC by resazurin reduction microplate assay (REMA); assay type: cell-based, Mycobacterium tuberculosis; conditions: Mycobacterium tuberculosis
[14] = target: T1, purified recombinant M. smegmatis NfnB (Mycolicibacterium smegmatis, UniProt A0R6D0); experiment: NfnB-mediated nitroreduction followed by LC-MS; assay type: biochemical
T1 construct: made in house
T1 sequence (A0R6D0 whole entry): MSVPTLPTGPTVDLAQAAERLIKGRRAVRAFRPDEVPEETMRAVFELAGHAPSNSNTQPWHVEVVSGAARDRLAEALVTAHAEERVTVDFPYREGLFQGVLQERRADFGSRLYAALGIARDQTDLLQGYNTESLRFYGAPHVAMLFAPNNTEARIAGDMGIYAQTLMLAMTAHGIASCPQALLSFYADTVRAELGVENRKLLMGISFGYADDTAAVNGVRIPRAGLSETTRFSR

[15] = test system: M. tuberculosis H37Rv; assay type: in vivo, BALB/c mice; conditions: 50 mg/kg per day, 28 days
[16] = test system: C. diphtheriae DSM 44123; experiment: MIC99 by REMA; assay type: cell-based, Corynebacterium diphtheriae; conditions: Corynebacterium diphtheriae, DSM44123; C. diphtheriae DSM 44123; read-out: MIC99
[17] = test system: C. glutamicum ATCC 13032; experiment: MIC99 by REMA; assay type: cell-based, Corynebacterium glutamicum; conditions: Corynebacterium glutamicum, ATCC13032; C. glutamicum ATCC 13032; read-out: MIC99
[18] = test system: M. abscessus 2005-0524; experiment: MIC99 by REMA; assay type: cell-based; conditions: Mycobacteroides abscessus, 20050524; M. abscessus 2005-0524; read-out: MIC99
[19] = test system: M. avium ATCC 15769; experiment: MIC99 by REMA; assay type: cell-based; conditions: Mycobacterium avium, ATCC15769; M. avium ATCC 15769; read-out: MIC99
[20] = test system: M. bolletii 1999-0888; experiment: MIC99 by REMA; assay type: cell-based; conditions: Mycobacteroides abscessus, 19990888; M. bolletii 1999-0888; read-out: MIC99
[21] = test system: M. bovis BCG Pasteur; experiment: microbe, parasite or virus in culture; assay type: cell-based, Mycobacterium bovis BCG; conditions: Mycobacterium tuberculosis variant bovis BCG, BCG
[22] = test system: M. bovis BCG BN2; assay type: cell-based, Mycobacterium bovis BCG
[23] = test system: M. marinum Strain M; experiment: MIC99 by REMA; assay type: cell-based, Mycobacterium marinum; conditions: Mycobacterium marinum; M. marinum Strain M; read-out: MIC99
[24] = test system: M. massiliense 2005-0484; experiment: MIC99 by REMA; assay type: cell-based; conditions: Mycobacteroides abscessus, 20050484; M. massiliense 2005-0484; read-out: MIC99
[25] = test system: M. smegmatis mc^2155; experiment: MIC99 by REMA; assay type: cell-based, Mycobacterium smegmatis; conditions: Mycolicibacterium smegmatis; M. smegmatis mc^2155; read-out: MIC99
[26] = test system: M. smegmatis GM22; experiment: microbe, parasite or virus in culture; assay type: cell-based; conditions: Mycolicibacterium smegmatis; M. smegmatis GM22, overproduces NfnB nitroreductase; read-out: MIC99
[27] = test system: M. tuberculosis MDR_CHUV; experiment: MIC99 by REMA; assay type: cell-based, Mycobacterium tuberculosis; conditions: Mycobacterium tuberculosis; read-out: MIC99
[28] = test system: M. vaccae ATCC 15483; experiment: MIC99 by REMA; assay type: cell-based; conditions: Mycolicibacterium vaccae, ATCC15483; M. vaccae ATCC 15483; read-out: MIC99
[29] = Table 1, H37Rv, REMA, read-out: MIC M. tuberculosis
[30] = Table S1, M. tuberculosis H37Rv, read-out: MIC

## NC(=O)N1c2ccccc2C=Cc2ccccc21 [Carbamazepine]
[1]
  microsomal CLint: 1.1 µL/min/mg
[2]
  microsomal CLint: 0.5 µL/min/mg

## NNC(=O)c1ccncc1 [INH, isoniazid]
[3]
  MIC: 0.125 µg/mL (≈ 0.911 µM)
[4]
  MIC: 0.125 µg/mL (≈ 0.911 µM)
[5]
  MIC: > 20 µg/mL
[6]
  MIC: > 20 µg/mL
[7]
  MIC: > 20 µg/mL
[8]
  MIC: > 20 µg/mL
[9]
  MIC: > 20 µg/mL
[10]
  MIC: > 20 µg/mL
[11]
  MIC: > 20 µg/mL
[12]
  MIC: > 20 µg/mL

## O=c1nc(N2CCN(CCC3CCCCC3)CC2)sc2c([N+](=O)[O-])cc(C(F)(F)F)cc12 [PBTZ129]
[13]; [29]
  MIC: 0.00019 µg/mL (≈ 0.000404 µM)
[13]; [30]
  MIC: 0.00019 µg/mL (≈ 0.000404 µM)

## CCCCCCCN1CCN(c2nc(=O)c3cc(C(F)(F)F)cc([N+](=O)[O-])c3s2)CC1 [PBTZ134]
[13]; [29]
  MIC: 0.00019 µg/mL (≈ 0.000414 µM)
[13]; [30]
  MIC: 0.00019 µg/mL (≈ 0.000414 µM)
[14]
  NfnB-mediated reduction, species found by LC-MS: as susceptible to NfnB-mediated reduction as BTZ043
[15]
  reduction of bacterial burden in the spleens, fold more than BTZ043: 10 fold

## O=c1nc(N2CCN(CCCCOc3ccccc3)CC2)sc2c([N+](=O)[O-])cc(C(F)(F)F)cc12 [PBTZ137]
[13]; [29]
  MIC: 0.0015 µg/mL (≈ 0.00295 µM)
[13]; [30]
  MIC: 0.0015 µg/mL (≈ 0.00295 µM)

## O=c1nc(N2CCN(CCCCc3ccccc3)CC2)sc2c([N+](=O)[O-])cc(C(F)(F)F)cc12 [PBTZ139]
[13]; [29]
  MIC: 0.00037 µg/mL (≈ 0.000751 µM)
[13]; [30]
  MIC: 0.00037 µg/mL (≈ 0.000751 µM)

## CO[C@H]1/C=C/O[C@@]2(C)Oc3c(C)c(O)c4c(O)c(c(/C=N/N5CCN(C)CC5)c(O)c4c3C2=O)NC(=O)/C(C)=C\C=C\[C@H](C)[C@H](O)[C@@H](C)[C@@H](O)[C@@H](C)[C@H](OC(C)=O)[C@@H]1C [RIF, rifampicin]
[13]; M. tuberculosis H37Rv, read-out: MIC99
  MIC99: 0.001 µg/mL (≈ 0.00122 µM)
[16]
  MIC99: 0.0008 µg/mL (≈ 0.000972 µM)
[17]
  MIC99: 0.004 µg/mL (≈ 0.00486 µM)
[18]
  MIC99: 6.25 µg/mL (≈ 7.59 µM)
[19]
  MIC99: 25 µg/mL (≈ 30.4 µM)
[20]
  MIC99: 50 µg/mL (≈ 60.8 µM)
[21]
  MIC99: 0.001 µg/mL (≈ 0.00122 µM)
[22]
  MIC99: 0.0008 µg/mL (≈ 0.000972 µM)
[23]
  MIC99: 0.39 µg/mL (≈ 0.474 µM)
[24]
  MIC99: 25 µg/mL (≈ 30.4 µM)
[25]
  MIC99: 0.5 µg/mL (≈ 0.608 µM)
[26]
  MIC99: 1 µg/mL (≈ 1.22 µM)
[27]
  MIC99: > 100 µg/mL
[28]
  MIC99: 100 µg/mL (≈ 122 µM)
